The values below are quoted from earlier work in US20050136114A1, “Taste masked pharmaceutical compositions comprising bitter drug and pH sensitive polymer” (COUNCIL OF SCIENTIFIC AND INDUSTRIAL RESEARCH, priority 2003, published 2005).

The conditions of data set [1]: in presence of Eudragit E.
The conditions of data set [2]: oral, humans.

For `CO/N=C(\C(=O)N[C@@H]1C(=O)N2C(C(=O)OC(C)OC(C)=O)=C(COC(N)=O)CS[C@H]12)c1ccco1` (some centres unmarked) [cefuroxime axetil], the degradation result in data set [1] is on record as “significant degradation”. In addition, in data set [2], the bioavailability is 32-50%.
